Consider eleven compounds from patent US7494996B2 (priority 2000, dated 2009).

For one assay, the system named is Sphaerotheca fuliginea. Nature of the assay: Cucumber Powdery Mildew (CPM) protectant test in the greenhouse. The class given is in vivo. To be noted: 300 g/ha, 100 is total disease control, 0 is no disease control. Summed up: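 Compounds in acetone-methanol-water (1:1:2) sprayed onto cucumber cv. "Bush Champion" (cotyledons plus one true leaf, 13 days old), dried 4 h. Inoculated 1 day later with 2×10^5 spores/ml; disease control (%) rated after 7 days in greenhouse.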

In another assay the test system is Pyricularia oryzae. Put plainly: whole plant or invertebrate. The class given is in vivo. To be noted: protectant, 300 g/ha, greenhouse; 100 is total disease control, 0 is no disease control.
The subject of the next assay is Southern Armyworm. Nature of the assay: Protocol 1 Southern Armyworm (AW) foliar spray test. It counts as in vivo, Spodoptera eridania. As to the method: (§1) A test solution containing 1250 parts per million (ppm) was prepared by dissolving the test compound in […] of a second solvent (acetone: water, 1:1) to give an acetone:water: methanol system of 50: 40:10.
(§2) The enclosed spraying chamber consisted of a single spray nozzle mounted on a boom moving at a fixed speed and distance over stationary targets. The vertical distance from the nozzle tip to the targets was adjusted to give rates varying from 150 g/ha to 600 g/ha
Individual fully expanded primary lima bean (Phaseolus limensis) leaves were placed bottom side up on moistened pieces of filter paper in Petri dishes. The leaves were sprayed with the test solutions and allowed to dry. The dishes were infested with 5 third instar larvae of the southern armyworm, covered with the lids, and held at 27° C. Armyworm control was rated by visual inspection after 48 hours. […] A rating of 0 indicated no dead larvae and normal feeding. Intermediate control was indicated by intermediate ratings.

Another assay concerns Mexican Bean Beetle. Nature of the assay: Protocol 1 Mexican Bean Beetle (BB) foliar spray test. It counts as in vivo, Epilachna verivestis. To be noted: control rated after 48 hours (100 = all larvae dead). As to the method: as §1, §2
Individual fully expanded primary lima bean (Phaseolus limensis) leaves were placed bottom side up on moistened pieces of filter paper in Petri dishes. The leaves were sprayed with the test solutions and allowed to dry. The dishes were infested with 5 third instar larvae of the mexican bean beetle, covered with the lids, and held at 27° C. Bean beetle control was rated by visual inspection after 48 hours. […] A rating of 0 indicated no dead larvae and normal feeding. Intermediate control was indicated by intermediate ratings.

Another assay relates to Two-Spotted Spider Mite. Put plainly: Protocol 1 Two-Spotted Spider Mite (MTA) foliar spray test. The note with it: percentage of mites killed 1-day post-treatment. It counts as in vivo, Tetranychus urticae. As for the experimental part:
as §1, §2
A pad of moistened cotton was placed in a Petri dish. A 1-inch square section cut from a fully expanded primary lima bean (Phaseolus limensis) leaf was positioned bottom side up on the moist cotton. The leaf square was infested with approximately 50 adult female mites. The dishes were sprayed with the test solutions and held at 27° C. for mortality determination 1-day post-treatment. The percentage of mites killed were rated from 100% (all dead) to 0% (all alive).

Take `CCCCCn1nc(-c2ccc(Cl)cc2)ncc1=O` [Compound 234]: in the assay with Sphaerotheca fuliginea, the “Cucumber Powdery Mildew (CPM) protectant fungicide data, percent control” value (shortened to “Cucumber Powdery Mildew … percent control”) is 80 percent control. In the assay on Pyricularia oryzae, the “Rice Blast (RB) protectant fungicide data, percent control” value (“Rice Blast … percent control” for short) was 100 percent control. In the assay with Southern Armyworm (Protocol 1, DOSE 300), the AW is recorded as 0. In the assay on Mexican Bean Beetle (Protocol 1, DOSE 300), this compound came in with a BB of 0. The compound also came in with an MTA with Two-Spotted Spider Mite (Protocol 1, DOSE 300) of 100%.
On to `O=c1cnc(-c2cc(Cl)cc(Cl)c2)nn1CC(F)(F)F` [Compound 248], for which, in the assay on Sphaerotheca fuliginea, the “Cucumber Powdery Mildew … percent control” value was 80 percent control. The “Rice Blast … percent control” value with Pyricularia oryzae was 100 percent control. This compound had an AW in the assay with Southern Armyworm (Protocol 1, DOSE 150) of 0. In the assay with Mexican Bean Beetle (Protocol 1, DOSE 150), this compound displayed a BB of 0. Moreover, the MTA in the assay on Two-Spotted Spider Mite (Protocol 1, DOSE 150) is recorded as 100%.
`CCCCN1N=C(c2ccc(Cl)cc2)NCC1=O` [Compound 50]: in the assay on Sphaerotheca fuliginea, the “Cucumber Powdery Mildew … percent control” value stood at 80 percent control. Further, the “Rice Blast … percent control” value in the assay with Pyricularia oryzae was found to be 100 percent control. The AW in the assay with Southern Armyworm (Protocol 1, DOSE 150) is reported as 0. In the assay on Mexican Bean Beetle (Protocol 1, DOSE 150), the BB stood at 0. In addition, the MTA with Two-Spotted Spider Mite (Protocol 1, DOSE 150) worked out at 75%.
On to `COc1cccc(-c2ncc(=O)n(CC(F)(F)F)n2)c1` [Compound 252], for which the “Cucumber Powdery Mildew … percent control” value with Sphaerotheca fuliginea worked out at 0 percent control. In addition, the “Rice Blast … percent control” value in the assay with Pyricularia oryzae is 85 percent control. The same compound yielded an AW in the assay on Southern Armyworm (Protocol 1, DOSE 150) of 0. The BB in the assay with Mexican Bean Beetle (Protocol 1, DOSE 150) is given as 100. The compound further registered an MTA in the assay on Two-Spotted Spider Mite (Protocol 1, DOSE 150) of 50%.
On to `CCC(C)n1nc(C2CCCCC2)ncc1=O` (stereo not shown) [Compound 255], for which, in the assay with Sphaerotheca fuliginea, the “Cucumber Powdery Mildew … percent control” value was 0 percent control. Also, the “Rice Blast … percent control” value with Pyricularia oryzae is given as 50 percent control. Further, the AW in the assay on Southern Armyworm (Protocol 1, DOSE 150) is 0. The compound further came in with a BB in the assay with Mexican Bean Beetle (Protocol 1, DOSE 150) of 90. The MTA in the assay with Two-Spotted Spider Mite (Protocol 1, DOSE 150) worked out at 100%.
As for `C=CCn1nc(-c2ccc(Cl)cc2)ncc1=O` [Compound 236], in the assay with Sphaerotheca fuliginea, the “Cucumber Powdery Mildew … percent control” value is given as 90 percent control. Further, in the assay with Pyricularia oryzae, the “Rice Blast … percent control” value is recorded as 99 percent control. For the same compound, in the assay on Southern Armyworm (Protocol 1, DOSE 300), the AW amounted to 0. Also, the BB in the assay on Mexican Bean Beetle (Protocol 1, DOSE 300) stood at 100. The compound also returned an MTA with Two-Spotted Spider Mite (Protocol 1, DOSE 300) of 100%.
`Cn1nc(-c2ccc(Cl)cc2)ncc1=O` [Compound 238]: the “Cucumber Powdery Mildew … percent control” value with Sphaerotheca fuliginea was 90 percent control. In addition, in the assay with Pyricularia oryzae, the “Rice Blast … percent control” value is 50 percent control. This compound yielded an AW with Southern Armyworm (Protocol 1, DOSE 300) of 0. This compound also yielded a BB in the assay on Mexican Bean Beetle (Protocol 1, DOSE 300) of 75. The compound further showed an MTA in the assay on Two-Spotted Spider Mite (Protocol 1, DOSE 300) of 100%.
Take `O=C1CNC(c2cc(Cl)cc(Cl)c2)=NN1CC(F)(F)F` [Compound 43]: in the assay on Sphaerotheca fuliginea, the “Cucumber Powdery Mildew … percent control” value is on record as 80 percent control. The “Rice Blast … percent control” value with Pyricularia oryzae is on record as 99 percent control. In the assay with Southern Armyworm (Protocol 1, DOSE 150), the AW is 50. The compound further showed a BB with Mexican Bean Beetle (Protocol 1, DOSE 150) of 0. The MTA in the assay on Two-Spotted Spider Mite (Protocol 1, DOSE 150) worked out at 0%.
For `CC(C)(C)n1nc(-c2ccc(Cl)cc2)ncc1=O` [Compound 241], the “Cucumber Powdery Mildew … percent control” value in the assay with Sphaerotheca fuliginea is 0 percent control. Also, the “Rice Blast … percent control” value in the assay with Pyricularia oryzae is listed as 50 percent control. The same compound showed an AW with Southern Armyworm (Protocol 1, DOSE 300) of 0. The BB in the assay on Mexican Bean Beetle (Protocol 1, DOSE 300) stood at 0. In addition, the MTA with Two-Spotted Spider Mite (Protocol 1, DOSE 300) is 100%.
As to `O=c1cnc(-c2cccc(Cl)c2)nn1CC(F)(F)F` [Compound 245], the “Cucumber Powdery Mildew … percent control” value in the assay on Sphaerotheca fuliginea was 0 percent control. Also, the “Rice Blast … percent control” value with Pyricularia oryzae was found to be 99 percent control. Also, the AW in the assay on Southern Armyworm (Protocol 1, DOSE 300) turned out to be 100. Further, in the assay on Mexican Bean Beetle (Protocol 1, DOSE 300), the BB came to 100. The same compound came in with an MTA with Two-Spotted Spider Mite (Protocol 1, DOSE 300) of 100%.
For the compound `Cc1c(Cl)cc(-c2ncc(=O)n(CC(F)(F)F)n2)cc1Cl` [Compound 253], the “Cucumber Powdery Mildew … percent control” value in the assay on Sphaerotheca fuliginea came to 50 percent control. Further, the “Rice Blast … percent control” value with Pyricularia oryzae was found to be 100 percent control. In the assay on Southern Armyworm (Protocol 1, DOSE 150), this compound displayed an AW of 0. The compound also registered a BB with Mexican Bean Beetle (Protocol 1, DOSE 150) of 0. The MTA in the assay with Two-Spotted Spider Mite (Protocol 1, DOSE 150) is listed as 100%.
